Measured values reported in patent US8889667B2 (Agios Pharmaceuticals, Inc, priority 2010, dated 2014).

Biological target: PKM2 (Homo sapiens, UniProt P14618)
Assay: PKM2 Assay (activation, LDH-coupled, absorbance at 340 nm)
Format: biochemical
Summary of the method: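 Human PKM2 (50 ng/well) was preincubated with compound and coupling mix for 30 min at 4 °C without ADP. Reactions were then started with ADP (0.7 mM) alongside PEP 0.15 mM, NADH 180 μM and LDH, in Tris pH 7.5/KCl/MgCl2/DTT/BSA buffer. A340 was followed at 25 °C and activation reported as AC50.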

Sequence of PKM2 (P14618 whole entry): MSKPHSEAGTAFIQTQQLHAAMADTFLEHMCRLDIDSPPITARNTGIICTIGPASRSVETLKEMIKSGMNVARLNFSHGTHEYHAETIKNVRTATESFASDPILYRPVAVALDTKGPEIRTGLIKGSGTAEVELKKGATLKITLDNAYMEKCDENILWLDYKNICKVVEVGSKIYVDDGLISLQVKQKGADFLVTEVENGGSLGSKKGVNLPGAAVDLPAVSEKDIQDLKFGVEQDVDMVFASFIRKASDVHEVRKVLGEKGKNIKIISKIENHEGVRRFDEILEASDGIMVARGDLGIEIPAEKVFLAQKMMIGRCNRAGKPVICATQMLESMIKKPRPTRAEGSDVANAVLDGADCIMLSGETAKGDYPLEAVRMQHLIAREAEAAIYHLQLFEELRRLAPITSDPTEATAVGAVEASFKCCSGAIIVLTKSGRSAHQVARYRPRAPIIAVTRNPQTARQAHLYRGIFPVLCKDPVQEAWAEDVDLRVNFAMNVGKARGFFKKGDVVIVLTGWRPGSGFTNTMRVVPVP

Row | SMILES | AC50 (Table 5) [nM] | AC50 (Table 4) [nM]
1 | C[C@H]1CN(Cc2cc(F)cc(F)c2)CCN1C(=O)c1ccc(NS(=O)(=O)c2cccc3cccnc23)cc1 [Compound 142, (S)—N-(4-(4-(3,5-difluorobenzyl)-2-methylpiperazine-1-carbonyl)phenyl)quinoline-8-sulfonamide] | – | < 100
2 | CC(c1ccc(F)cc1F)N1CCN(C(=O)c2ccc(NS(=O)(=O)c3cccc4cccnc34)cc2)[C@@H](C)C1 (stereo partly drawn) [Compound 169] | – | 100 to 500
3 | COc1cccc(CN2CCN(C(=O)c3ccc(NS(=O)(=O)c4cccc5cccnc45)cc3)[C@@H](C)C2)c1OC [Compound 146, (S)—N-(4-(4-(2,3-dimethoxybenzyl)-2-methylpiperazine-1-carbonyl)phenyl)quinoline-8-sulfonamide] | – | 1000 to 20000
4 | C[C@H]1CN(Cc2ccccc2F)CCN1C(=O)c1ccc(NS(=O)(=O)c2cccc3cccnc23)cc1 [Compound 143, (S)—N-(4-(4-(2-fluorobenzyl)-2-methylpiperazine-1-carbonyl)phenyl)quinoline-8-sulfonamide] | – | < 100
5 | CC(C)[C@H]1CN(Cc2cc(F)cc(F)c2)CCN1C(=O)c1ccc(NS(=O)(=O)c2cccc3cccnc23)cc1 [Compound 176] | – | 1000 to 20000
6 | C[C@@H]1CN(Cc2cc(F)cc(F)c2)CCN1C(=O)c1ccc(NS(=O)(=O)c2cccc3cccnc23)cc1 [Compound 119, (R)—N-(4-(4-(3,5-difluorobenzyl)-2-methylpiperazine-1-carbonyl)phenyl)quinoline-8-sulfonamide] | – | < 100
7 | CC1CN(Cc2ccc(Cl)c(F)c2)CC(C)N1C(=O)c1ccc(NS(=O)(=O)c2cccc3cccnc23)cc1 (stereo not drawn) [Compound 197, N-(4-(4-(4-chloro-3-fluorobenzyl)-2,6-dimethylpiperazine-1-carbonyl)phenyl)quinoline-8-sulfonamide] | – | 100 to 500
8 | O=C(c1ccc(NS(=O)(=O)c2cccc3cccnc23)c(OC(F)(F)F)c1)N1CCN(CC2CCOC2)CC1 (stereo not drawn) [Compound 302, N-(4-(4-((tetrahydrofuran-3-yl)methyl)piperazine-1-carbonyl)-2-(trifluoromethoxy)phenyl)quinoline-8-sulfonamide] | 500 to 1000 | –
9 | C[C@@H]1CN(CC2CCC2)CCN1C(=O)c1ccc(NS(=O)(=O)c2cccc3cccnc23)cc1 [Compound 206, (R)—N-(4-(4-(cyclobutylmethyl)-2-methylpiperazine-1-carbonyl)phenyl)quinoline-8-sulfonamide] | – | < 100
10 | O=C(c1ccc(NS(=O)(=O)c2cccc3cccnc23)cc1)N1CC2CCC(C1)N2CC1CC1 [Compound 221, N-(4-(8-(cyclopropylmethyl)-3,8-diazabicyclo[3.2.1]octane-3-carbonyl)phenyl)quinoline-8-sulfonamide] | – | < 100
11 | C[C@H]1CN(Cc2c(F)cc(F)cc2F)CCN1C(=O)c1ccc(NS(=O)(=O)c2cccc3cccnc23)cc1 [Compound 164, (S)—N-(4-(2-methyl-4-(2,4,6-trifluorobenzyl)piperazine-1-carbonyl)phenyl)quinoline-8-sulfonamide] | – | 100 to 500
12 | CC1CN(CC2CCOC2)CC(C)N1C(=O)c1ccc(NS(=O)(=O)c2cccc3cccnc23)cc1 (stereo not drawn) [Compound 204, N-(4-(2,6-dimethyl-4-((tetrahydrofuran-3-yl)methyl)piperazine-1-carbonyl)phenyl)quinoline-8-sulfonamide] | – | 500 to 1000

Other lines, results leading:

Row | AC50 (Table 5) [nM] | AC50 (Table 4) [nM] | SMILES
13 | < 100 | – | O=C(c1ccc(NS(=O)(=O)c2cccc3cccnc23)cc1)N1CCN(C(=O)c2ccncc2F)CC1 [Compound 317, N-(4-(4-(3-fluoroisonicotinoyl)piperazine-1-carbonyl)phenyl)quinoline-8-sulfonamide]
14 | 100 to 500 | – | CC(C)(c1ccccc1F)N1CCN(C(=O)c2ccc(NS(=O)(=O)c3cccc4cccnc34)cc2)CC1 [Compound 409, N-(4-(4-(2-(2-fluorophenyl)propan-2-yl)piperazine-1-carbonyl)phenyl)quinoline-8-sulfonamide]
15 | 100 to 500 | – | O=C(c1ccc(NS(=O)(=O)c2cccc3cccnc23)c(OC(F)(F)F)c1)N1CCN(Cc2ccn[nH]2)CC1 [Compound 382, N-(4-(4-((1H-pyrazol-5-yl)methyl)piperazine-1-carbonyl)-2-(trifluoromethoxy)phenyl)quinoline-8-sulfonamide]
16 | 1000 to 20000 | – | O=C(c1ccc(NS(=O)(=O)c2cccc3cccnc23)c(OC(F)(F)F)c1)N1CCN(Cc2ncccc2C(F)(F)F)CC1 [Compound 309, N-(2-(trifluoromethoxy)-4-(4-((3-(trifluoromethyl)pyridin-2-yl)methyl)piperazine-1-carbonyl)phenyl)quinoline-8-sulfonamide]
17 | 100 to 500 | – | O=C(c1ccncc1)N1CCN(C(=O)c2ccc(NS(=O)(=O)c3cccc4cccnc34)c(OC(F)(F)F)c2)CC1 [Compound 363]
18 | 100 to 500 | – | O=C(c1ccc(NS(=O)(=O)c2cccc3cccnc23)cc1Cl)N1CCN(CC2CCCC2)CC1 [Compound 428, N-(3-chloro-4-(4-(cyclopentylmethyl)piperazine-1-carbonyl)phenyl)quinoline-8-sulfonamide]
19 | 100 to 500 | – | O=C(c1ccc(NS(=O)(=O)c2cccc3cccnc23)c(OC(F)(F)F)c1)N1CCN(Cc2cccc(F)c2)CC1 [Compound 377, N-(4-(4-(3-fluorobenzyl)piperazine-1-carbonyl)-2-(trifluoromethoxy)phenyl)quinoline-8-sulfonamide]
20 | 100 to 500 | – | O=C(c1ccc(NS(=O)(=O)c2cccc3cccnc23)cc1Cl)N1CCN(CC2CCCCO2)CC1 (stereo not drawn) [Compound 439, N-(3-chloro-4-(4-((tetrahydro-2H-pyran-2-yl)methyl)piperazine-1-carbonyl)phenyl)quinoline-8-sulfonamide]
21 | < 100 | – | O=C(c1ccc(NS(=O)(=O)c2cccc3cccnc23)cc1F)N1CCN(CC2CCOCC2)CC1 [Compound 436, N-(3-fluoro-4-(4-((tetrahydro-2H-pyran-4-yl)methyl)piperazine-1-carbonyl)phenyl)quinoline-8-sulfonamide]
22 | < 100 | – | CC(C1CC1)N1CCN(C(=O)c2ccc(NS(=O)(=O)c3cccc4cccnc34)cc2)CC1 (stereo not drawn) [Compound 442, N-(4-(4-(1-cyclopropylethyl)piperazine-1-carbonyl)phenyl)quinoline-8-sulfonamide]
23 | < 100 | – | CC(c1cccnc1)N1CCN(C(=O)c2ccc(NS(=O)(=O)c3cccc4cccnc34)cc2)CC1 (stereo not drawn) [Compound 370, N-(4-(4-(1-(pyridin-3-yl)ethyl)piperazine-1-carbonyl)phenyl)quinoline-8-sulfonamide]
24 | < 100 | – | CC(c1cc(F)cc(F)c1)N1CCN(C(=O)c2ccc(NS(=O)(=O)c3cccc4cccnc34)cc2)CC1 (stereo not drawn) [Compound 331, N-(4-(4-(1-(3,5-difluorophenyl)ethyl)piperazine-1-carbonyl)phenyl)quinoline-8-sulfonamide]
25 | < 100 | – | O=C(c1ccc(NS(=O)(=O)c2cccc3cccnc23)cc1)N1CCN(C(=O)c2cn[nH]c2)CC1 [Compound 372]
26 | < 100 | – | COc1cc(NS(=O)(=O)c2cccc3cccnc23)ccc1C(=O)N1CCN(C2(c3ccccc3)CC2)CC1 [Compound 393, N-(3-methoxy-4-(4-(1-phenylcyclopropyl)piperazine-1-carbonyl)phenyl)quinoline-8-sulfonamide]
27 | < 100 | – | CC(c1c(F)cccc1F)N1CCN(C(=O)c2ccc(NS(=O)(=O)c3cccc4cccnc34)cc2)CC1 (stereo not drawn) [Compound 357, N-(4-(4-(1-(2,6-difluorophenyl)ethyl)piperazine-1-carbonyl)phenyl)quinoline-8-sulfonamide]
